Where two headings read alike, the source gives them in different places.
How the values were obtained:
corn seedling growth [1] = details: for Plant root dry weight / Plant shoot dry weight / Total plant dry weight / Chlorophyll content: 2 weeks after; for Chlorophyll content: SPAD chlorophyll meter; for Plant height: one wk after (8 days after planting)
Protocol: In a clear plastic bag (25 cm×25 cm), 100 gram seeds were treated with 1 ml of water (as control) and 1 mL of the 100, 200, and 500 mg/L treatment solutions separately and shaken vigorously. One day following treatment, seeds were planted in 6″ plastic pots containing sand:perlite 1:1 mix. There were 10 pots/treatment; each pot being a replicate. Plant height was measured 8 days after planting. Plant leaf greenness and final harvest were made 2 weeks after planting. Plant leaf greenness was measured using a SPAD chlorophyll meter (Spectrum Technology, USA).

corn = details: GSH 100 mg/L seed treatment; petriplates, dark, 24° C., 7 days
Protocol: Instead of growing the seeds in a greenhouse, the seeds were grown in […] polystyrene petriplates (Fisherband) on 5⅜″ germination paper circle (Anchor Paper Co., Saint Paul, Mn) moistened with 12 ml distilled water. Four petriplates were prepared per treatment as 4 replicates. Petri plates were then placed in the dark in under-counter cabinets in the lab at 24° C. for 7 days. After 7 days, seedlings were removed from the cabinets, exposed to light, and their main roots severed and measured for various root parameters with WinRhizo root scanner (Regent Instruments Inc., WinRhizo Pro 2007). For all statistical analysis, student t-test was applied using JMPv.9 statistical software.

chickpea = chickpea roots; seed treatment; petriplates, dark, 24° C., 7 days
Protocol: (§1) Seeds of chickpea, cotton, pinto bean and soybean were treated according to the protocols of Example 1. One day after seed treatment, 10 seeds of each crop variety were plated in 150 mm×15 mm polystyrene petriplates (Fisherband) on 5⅜″ germination paper circle (Anchor Paper Co., Saint Paul, Mn) moistened with 12 ml distilled water. Four petriplates were prepared per treatment as 4 replicates. Petri plates were then placed in the dark in under-counter cabinets in the lab at 24° C. for 7 days. After 7 days, seedlings were removed from the cabinets, exposed to light, and their main roots severed and measured for various root parameters with WinRhizo root scanner (Regent Instruments Inc., WinRhizo Pro 2007). For all statistical analysis, student t-test was applied using JMPv.9 statistical software.

soybean = soybean roots; seed treatment; petriplates, dark, 24° C., 7 days
Protocol: as §1

corn seedling growth [2] = test: Effect of GSH and LCO on corn seedling growth (greenhouse pots, WinRhizo); format: in vivo; details: seed treatment (LCO 10^−8M), harvested after 2 weeks
Protocol: LCO stock solution was prepared by dissolving LCO in 50:50 ethanol/water solvent. Seeds were then treated according to the protocols of Example 1. Seeds were planted 1 day after treatment in greenhouse under artificial lighting in 5'' plastic pots containing 1:1 sand/perlite mix. […] Plants were allowed to grow for 2 weeks and then harvested. A non-destructive harvest was made by washing sand/perlite soil mix under running tap water. After cleaning, each plant was placed on a clear plexiglass-tray containing enough water to spread the roots in liquid. The tray was then placed on the WinRhizo root scanner (Regent Instruments Inc., WinRhizo Pro 2007) for measurement.

Structure (SMILES): N[C@@H](CCC(=O)N[C@@H](CS)C(=O)NCC(=O)O)C(=O)O [GSH, glutathione]
- Plant root dry weight (corn seedling growth [1]; GSH 100 mg/L seed treatment): 0.244a mg
- Plant shoot dry weight (corn seedling growth [1]; GSH 100 mg/L seed treatment): 0.3111ab mg
- Total plant dry weight (corn seedling growth [1]; GSH 100 mg/L seed treatment): 0.555a mg
- Chlorophyll content (corn seedling growth [1]; GSH 100 mg/L seed treatment): 27.93a
- Plant height (corn seedling growth [1]; GSH 100 mg/L seed treatment): 12.07a cm
- Plant root dry weight (corn seedling growth [1]; GSH 200 mg/L seed treatment): 0.231ab mg
- Plant shoot dry weight (corn seedling growth [1]; GSH 200 mg/L seed treatment): 0.3116ab mg
- Total plant dry weight (corn seedling growth [1]; GSH 200 mg/L seed treatment): 0.542a mg
- Chlorophyll content (corn seedling growth [1]; GSH 200 mg/L seed treatment): 27.55a
- Plant height (corn seedling growth [1]; GSH 200 mg/L seed treatment): 11.91a cm
- Plant root dry weight (corn seedling growth [1]; GSH 500 mg/L seed treatment): 0.266b mg
- Plant shoot dry weight (corn seedling growth [1]; GSH 500 mg/L seed treatment): 0.339a mg
- Total plant dry weight (corn seedling growth [1]; GSH 500 mg/L seed treatment): 0.565a mg
- Chlorophyll content (corn seedling growth [1]; GSH 500 mg/L seed treatment): 27.83a
- Plant height (corn seedling growth [1]; GSH 500 mg/L seed treatment): 11.66ab cm
- Length, Total (corn): 21.890a* cm
- Volume, Total (corn): 0.150a* cm^3
- Length (chickpea): 94.671a cm
- Surface area (chickpea): 23.142a cm^2
- Length (soybean): 146.373a cm
- Surface area (soybean): 25.691a cm^2
- Coleoptile Length (corn seedling growth [2]): 9.814b cm
- Coleoptile Surface area (corn seedling growth [2]): 1.789b cm^2
- Coleoptile Volume (corn seedling growth [2]): 0.236b cm^2
- Root Diameter (corn seedling growth [2]): 0.653a mm
- Root Length (corn seedling growth [2]): 150.89a cm
- Root Surface area (corn seedling growth [2]): 30.47a cm^2
- Root Volume (corn seedling growth [2]): 0.494a cm^2

— patent publication US20140121100A1, “COMPOSITIONS AND METHODS FOR ENHANCING PLANT GROWTH” (NOVOZYMES BIOAG A/S, priority 2012, published 2014)
